Where two headings read alike, the source gives them in different places.
Columns and labels:
in vitro = conditions: human
[1] = test system: MERS-CoV, SARS-CoV, and SARS-CoV-2; assay: organism not typed; type: cell-based
MERS-CoV [2] = assay: microbe, parasite or virus in culture; type: cell-based; conditions: for IC50: read-out: IC50, MERS-CoV virus-induced cytopathic effect
SARS-CoV-2 = assay: microbe, parasite or virus in culture; type: cell-based; conditions: read-out: IC50, inhibition of SARS-CoV-2 infection
[3] = Five-day repeated dose toxicity study; conditions: mice; for Death / Time of 100% death after administration: intraperitoneal 10 mg/kg/day
MERS-CoV [4] = assay: microbe, parasite or virus in culture; type: cell-based; conditions: for IC50: read-out: IC50, inhibition of MERS-CoV infection
SARS-CoV = assay: microbe, parasite or virus in culture; type: cell-based; conditions: read-out: IC50, inhibition of SARS-CoV infection
[5] = Liver microsomal stability, text summary over mouse, rat and human; conditions: rat, human, liver microsomes
[6] = Rat pharmacokinetic study
CYP450 isozymes = assay: CYP450 inhibition, text summary over isozymes
[7] = Plasma protein binding, rat (rapid equilibrium dialysis)
[8] = Liver microsomal metabolic stability, mice; conditions: 1 μM compound, liver microsomes, 30 min
[9] = Liver microsomal metabolic stability, rat; conditions: 1 μM compound, liver microsomes, 30 min
[10] = Plasma protein binding, text summary over mouse and rat; conditions: in mouse and rat
[11] = Plasma protein binding, mice (rapid equilibrium dialysis); conditions: mouse
[12] = Liver microsomal metabolic stability, human; conditions: 1 μM compound, liver microsomes, 30 min
[13] = Middle East respiratory syndrome-related coronavirus, Calu-3, 72 h
[14] = Severe acute respiratory syndrome coronavirus 2, Vero
[15] = intraperitoneal 2 mg/kg/day, data not shown
[16] = Middle East respiratory syndrome-related coronavirus, Vero, 24 h
[17] = Severe acute respiratory syndrome coronavirus, Vero
[18] = intraperitoneal 10 mg/kg/day for 5 days
[19] = read-out: IC50, anti-coronavirus activity (range over both compounds and the viruses)
[20] = male, Sprague-Dawley, plasma, iv, 1 mg/kg
[21] = male, Sprague-Dawley, plasma, po, 2 mg/kg

Compound | CC50 (in vitro) | Selectivity index (SI) (MERS-CoV [2]) | IC50 (MERS-CoV [2]; [13]) | IC50 (MERS-CoV [2]) | IC50 (SARS-CoV-2; [14]) | Survival [3, 15] | Death [3] | Time of 100% death after administration [3] | IC50 (MERS-CoV [4]; [16]) | IC50 (SARS-CoV; [17]) | IC50 (SARS-CoV-2) | Survival [3, 18] | IC50 (SARS-CoV) | also measured
C[C@]12CC[C@H](O)C[C@H]1CC[C@@H]1[C@@H]2CC[C@]2(C)[C@@H](c3ccc(=O)oc3)CC[C@]12O [bufalin] | > 50000 nM | > 91.9 | 544 nM | 544 nM | 19 nM | 100% | 100% | 1 days | 18 nM | 16 nM | – | – | – | IC50 ([1]; read-out: IC50, anti-SARS-CoV and SARS-CoV-2 activity (range over both viruses)): 16 to 19 nM
CC(=O)O[C@H]1C[C@]2(O)[C@@H]3CC[C@@H]4C[C@@H](O)CC[C@]4(C)[C@H]3CC[C@]2(C)[C@H]1c1ccc(=O)oc1 [bufotalin] | > 50000 nM | > 30.7 | 1630 nM | – | 72.9 nM | – | – | – | 63 nM | 27 nM | 72 ± 1 nM | 100% | – | –
CC(=O)O[C@H]1[C@H]2O[C@]23[C@@H]2CC[C@@H]4C[C@@H](O)CC[C@]4(C)[C@H]2CC[C@]3(C)[C@H]1c1ccc(=O)oc1 [cinobufagin] | > 50000 nM | – | 616 nM | 616 nM | 72.2 nM | 100% | 100% | 2 days | 17 nM | 60.9 nM | 72 ± 1 nM | – | 60 ± 2 nM | remaining at 0.5 h, 1 μM [5]: < 5%; Time within which all rats (n = 3) died ([6]; 1 mg/kg IV injection, data not shown): ≤ 10 min; Detection in plasma after PO injection ([6]; 30 min after PO injection, 2 mg/kg, data not shown): not detected; inhibition at 10 µM (CYP450 isozymes): 4 to 46%; fraction unbound at 4 h, 5 μM [7]: 0.218; MS (% of Remaining), Mice [8]: 0.18%; MS (% of Remaining), Rat [9]: 4.40%; fraction unbound at 4 h, 5 μM ([10]; mouse, rat, plasma, PPB rate): 0.1 to 0.22; fraction unbound at 4 h, 5 μM [11]: 0.092; MS (% of Remaining), Human [12]: 2.99%
CC(=O)O[C@H]1[C@H]2O[C@]23[C@@H]2CC[C@]4(O)C[C@@H](O)CC[C@]4(C)[C@H]2CC[C@]3(C)[C@H]1c1ccc(=O)oc1 [cinobufotalin] | > 50000 nM | > 12.6 | 3960 nM | – | 399 nM | – | – | – | 230 nM | 429 nM | 399 ± 8 nM | 100% | 429 ± 17 nM | IC50 [1, 19]: 231 to 1610 nM; IC50 (MERS-CoV [4]): 231 ± 14 nM
C[C@H]1O[C@@H](O[C@H]2[C@@H](O)C[C@H](O[C@H]3[C@@H](O)C[C@H](O[C@H]4CC[C@@]5(C)[C@H](CC[C@@H]6[C@@H]5CC[C@]5(C)[C@@H](C7=CC(=O)OC7)CC[C@]65O)C4)O[C@@H]3C)O[C@@H]2C)C[C@H](O)[C@@H]1O [digitoxin, Digitoxin] | > 50000 nM | > 33.4 | 1500 nM | – | 59.9 nM | 100% | 100% | 4 days | 67 nM | 62.1 nM | 59 ± 1 nM | – | 62 ± 1 nM | Selectivity index (SI, CC50/IC50) (MERS-CoV [4]): > 147.9
C[C@]12CC[C@H](O)C[C@H]1CC[C@@H]1[C@@H]2CC[C@]2(C)[C@@H](c3ccc(=O)oc3)C[C@H]3O[C@]132 [resibufogenin] | > 50000 nM | > 3.1 | 16000 nM | – | 1610 ± 63 nM | – | – | – | 1610 nM | 1360 ± 59 nM | – | – | – | IC50 [1, 19]: 231 to 1610 nM
C[C@]12CC[C@H](O)C[C@@]1(O)CC[C@@H]1[C@@H]2CC[C@]2(C)[C@@H](c3ccc(=O)oc3)CC[C@]12O [telocinobufagin] | > 50000 nM | – | 464 nM | 465 nM | 142 nM | – | – | – | 27 nM | 71.2 nM | 142 ± 2 nM | 100% | 71 ± 2 nM | remaining at 0.5 h, 1 μM [5]: 15 to 30%; Ft (oral bioavailability) ([6]; P.O., 2 mg/kg): 33.2%; AUC [6, 20]: 604 ± 159 ng·h/mL; Vd [6, 20]: 0.275 ± 0.169 L/kg; clearance [6, 20]: 28.8 mL/min/kg; half-life [6, 20]: 13.5 ± 1.2 min; AUC [6, 21]: 488 ± 204 ng·h/mL; Cmax [6, 21]: 537 ± 227 ng/mL; Tmax [6, 21]: 20 ± 8.64 min; half-life [6, 21]: 30.6 ± 24.4 min; bioavailability ([6]; male, Sprague-Dawley, plasma, po, 2 mg/kg, Ft (oral bioavailability), P.O.): 33%; inhibition at 10 µM (CYP450 isozymes): 1.4 to 21%; fraction unbound at 4 h, 5 μM [7]: 0.032; MS (% of Remaining), Mice [8]: 21.7%; MS (% of Remaining), Rat [9]: 31.9%; PPB rate [10]: 96–97%; fraction unbound at 4 h, 5 μM [11]: 0.022; MS (% of Remaining), Human [12]: 15.1%

From paper PMC8618917 (Pharmaceutics, 2021)
